Where a SMILES comes first, the peptide text is derived from it. The star is where a group is joined. 5FAM = O=C1OC2(c3ccc(O)cc3Oc3cc(O)ccc32)c2ccc(C(=O)*)cc21
Assays:
[1] = In vitro tissue permeability, isolated sclera (diffusion cells); type: in vitro ADME, rabbit
Description: (§1) Evaluation of in vitro tissue permeability of the covalently linked complex of Penetratin derivatives and small molecular substances: the experimental rabbits were anesthetized with pentobarbital sodium (30 mg/kg), which is injected via ear vein, and sacrificed by injection with excessive chloral hydrate (150 mg/kg). After separation of the conjunctiva, carefully removed the entire eyeball, make a circumcision at about 2 mm from the limbus of cornea and remove the cornea, and removed the iris and other tissues to obtain an experimental cornea. The rest of the eyeballs were removed from the retina and other tissues to obtain an experimental sclera. Both the cornea and sclera were carefully washed with Ringer's solution 3 times before use. The experiment was started within 30 min after the animals were sacrificed. The freshly isolated cornea and sclera were carefully sandwiched between two diffusion cells, with the epithelial surface facing a diffusion cell (supply cell) on the left, the diffusion window diameter was 10.25 mm, and the diffusion area was 0.825 cm^2. 3.5 mL of Ringer's solutions were added to the supply cell and a receiving cell on the right, respectively. Circulating water was passed therein, and the water temperature was kept at 34° C.±0.5° C. […] Immediately after the experiment, the fluorescence intensity of the sample was measured. […]

[2] = Intraocular distribution of penetratin derivative-FAM complexes after conjunctival sac administration; type: in vivo, mice
Description: Evaluation of intraocular distribution of the covalently linked complex of Penetratin derivatives and small molecules: 5 μL of a solution of complex of penetratin derivative and FAM (concentration 30 μM) was dripped into the conjunctival sac of male mice, and the eyelids were gently closed to distribute the solution evenly. The solution was administered every 10 minutes for a total of 3 times, and taking the time of the last administration as zero time. At a preset time point, mice were killed by intraperitoneal injection of excessive chloral hydrate, and the eyeballs of the mice were removed, fixed with Davidson's solution for 0.5 h, and embedded. Frozen longitudinal sections of eyeballs were prepared and the nuclei were stained with DAPI, and the distribution of polypeptides in the eye parts was observed under an inverted fluorescence microscope.

[3] = In vitro tissue permeability, isolated cornea (diffusion cells); type: in vitro ADME, rabbit
Description: as §1

[4] = 7.5 μM complex with FAM, 34° C.
[5] = DAPI stained frozen sections after permeability experiment
[6] = 10 min after conjunctival sac administration (FIG. 6B)

Papp value relative to wild-type penetratin, isolated sclera [1, 4]: ⅔ | fluorescence signal in isolated sclera sections compared with wild-type penetratin group [1, 5]: significantly weaker | distribution in the cornea [2, 6]: significantly less distributed | distribution in the retina [2, 6]: less distributed | FAM fluorescence signal in anterior and posterior segment of the eye compared with wild-type penetratin ([2]; 10 minutes after eye drops, 30 μM, 5 μL x 3): weakened | amount entering the eye (cornea and retina) compared with wild-type penetratin ([2]; semi-quantitative analysis (FIG. 6C)): significantly less | Papp value relative to wild-type penetratin, isolated cornea [3, 4]: ⅕ | fluorescence in isolated cornea sections compared with wild-type penetratin group [3, 5]: no obvious fluorescence signal
SMILES: C[C@H](NC(=O)[C@H](C)NC(=O)[C@H](CCCCN)NC(=O)[C@H](C)NC(=O)[C@H](CCC(N)=O)NC(=O)[C@@H](N)CCCNC(=N)N)C(=O)N[C@@H](C)C(=O)N[C@@H](CCC(N)=O)C(=O)N[C@@H](CC(N)=O)C(=O)N[C@@H](CCCNC(=N)N)C(=O)N[C@@H](CCCNC(=N)N)C(=O)N[C@@H](C)C(=O)N[C@@H](CCCCN)C(=O)N[C@@H](C)C(=O)N[C@@H](CCCCN)C(=O)N[C@@H](CCCCN)C(=O)N[C@@H](CCCCNC(=O)c1ccc2c(c1)C(=O)OC21c2ccc(O)cc2Oc2cc(O)ccc21)C(=O)O [6A, RQAKAAAQNRRAKAKKK-FAM] (H-RQAKAAAQNRRAKAKKK(5FAM)-OH)
